{"source": "patent US10222368B2", "about": "(priority 2012, dated 2019)", "key": {"Aβ42-α7nAChR complex": {"test_system": "Aβ42-α7nAChR complex", "assay": "Lymphocyte co-immunoprecipitation / Western blot", "format": "cell-based, human", "experimental": "(§8) To prepare lymphocytes, 7 ml of venous blood was collected into an EDTA-containing collecting tube or S-monovette (Sarstedt, Newton, N.C.). […] The lymphocytes were washed twice by mixing with 6 ml oxygenated Kreb's-Ringer followed by centrifugation at 250×g for 10 minutes and re-suspension. […] To store lymphocytes, the lymphocyte pellet was resuspended in 250 μl ice-cold oxygenated Kreb's-Ringer containing 10% glycerol, and stored at −20° C. for 1 hour before storage at −80° C.\n(§9) In the case that frozen lymphocyte samples were used, a lymphocyte suspension was gradually thawed by storing at −20° C. for 1 hour after removal from −80° C. and then at thawed at 4° C.\nThe incubation was terminated by adding 1 ml ice-cold Ca^2+-free Kreb's-Ringer containing 0.5 mM EGTA/0.1 mM EDTA, protease and phosphatase inhibitors followed by centrifugation. […]\nThe membranes were then washed 3 times (1 minutes each) with 0.1% Tween-20 containing PBS and then once with distilled water for 1 minutes. The immunoreactivity was detected by a chemiluminutesescent method (Supersignal chemiluminutesescent reagents−Pierce/Thermo), and visualized by immediate exposure to X-ray film for 10-30 seconds (depending on the intensity of the signal). Specific protein bands were quantified by densitometric scanning (GS-800 calibrated densitometer, Bio-Rad Laboratories). […]"}, "TLR4/FLNA": {"target": "T1, TLR4/FLNA (Rattus norvegicus, UniProt A0A8I5ZV49)", "T1 construct": "from tissue; host or cells: rat frontal cortical synaptosomes", "assay": "Rat frontal cortical synaptosomes treated with Aβ42, anti-FLNA immunoprecipitation / Western blot", "format": "cell-based", "conditions": "1 or 10 nM compound, simultaneously or 10 min prior to 0.1 μM Aβ42; Dunnett's test", "method": "The complexes in the solubilized synaptosomes, and α7nAChR, TLR4 and FLNA levels in the anti-FLNA immunoprecipitates were determined by Western blotting (FIG. 15A) in which numerals outside of and to the left of the blots are as discussed before. Amounts present in the blots were quantified by densitometry (FIG. 15B). […] Structural formulas of the compounds used in this and the other figures are provided hereinafter."}, "α7nAChR-Aβ42 complex": {"test_system": "α7nAChR-Aβ42 complex", "assay": "96-well FITC-solid phase method in lymphocytes", "format": "cell-based, human", "conditions": "1 nM C0105, 30 min; AD lymphocytes or Aβ42-treated control lymphocytes", "text": "(§1) FIG. 2 illustrates the utility of a 96-well FITC-solid phase assay method to assess, in lymphocytes from AD patients and control subjects, levels of 1) the FLNA-α7nAChR association 2) the FLNA-TLR4 association and 3) α7nAChR-Aβ42 complexes. The top two panels show α7nAChR and TLR4 levels detected using respective FITC-anti-α7nAChR or FITC-anti-TLR4 antibodies after capturing FLNA coupled to α7nAChR and TLR4, respectively, with an anti-FLNA antibody coated on the microtiter solid phase plate.\n(§2) To prepare lymphocytes, 7 ml of venous blood was collected into an EDTA-containing collecting tube or S-monovette (Sarstedt). Collected blood (6 ml) was layered onto 6 ml of Histopaque®-1077 (Sigma) at 25° C., and the anticoagulated blood was centrifuged at 400×g for 30 minutes (25° C.) to yield plasma (top layer) and lymphocytes (opaque interface). The lymphocytes were washed twice by mixing with 6 ml of oxygenated K-R followed by centrifugation at 250×g for 10 minutes and resuspension. […]\nAfter two 1-minute washes with 50 mM Tris HCl (pH 7.4), each well was incubated in 0.5 μg/well FITC-conjugated anti-mouse IgG (human and mouse absorbed) for 1 hour at 25° C. Plates were washed twice with 200 μl ice-cold Tris HCl, pH 7.4 and the residual FITC-Aβ42 signals were determined by multimode plate reader, DTX880 (Beckman). […]"}, "TLR4-FLNA complex": {"target": "T2, TLR4-FLNA complex (Homo sapiens, UniProt P21333)", "T2 construct": "To determine the levels of FLNA-α7nAChR, FLNA-TLR4 and α7nAChR-Aβ42 complexes in the lymphocytes; endogenous in cells; host or cells: lymphocytes from venous blood of AD patients and control subjects (ex vivo)", "T2 sequence (P21333 2-2647 limits assumed, one chain of several)": "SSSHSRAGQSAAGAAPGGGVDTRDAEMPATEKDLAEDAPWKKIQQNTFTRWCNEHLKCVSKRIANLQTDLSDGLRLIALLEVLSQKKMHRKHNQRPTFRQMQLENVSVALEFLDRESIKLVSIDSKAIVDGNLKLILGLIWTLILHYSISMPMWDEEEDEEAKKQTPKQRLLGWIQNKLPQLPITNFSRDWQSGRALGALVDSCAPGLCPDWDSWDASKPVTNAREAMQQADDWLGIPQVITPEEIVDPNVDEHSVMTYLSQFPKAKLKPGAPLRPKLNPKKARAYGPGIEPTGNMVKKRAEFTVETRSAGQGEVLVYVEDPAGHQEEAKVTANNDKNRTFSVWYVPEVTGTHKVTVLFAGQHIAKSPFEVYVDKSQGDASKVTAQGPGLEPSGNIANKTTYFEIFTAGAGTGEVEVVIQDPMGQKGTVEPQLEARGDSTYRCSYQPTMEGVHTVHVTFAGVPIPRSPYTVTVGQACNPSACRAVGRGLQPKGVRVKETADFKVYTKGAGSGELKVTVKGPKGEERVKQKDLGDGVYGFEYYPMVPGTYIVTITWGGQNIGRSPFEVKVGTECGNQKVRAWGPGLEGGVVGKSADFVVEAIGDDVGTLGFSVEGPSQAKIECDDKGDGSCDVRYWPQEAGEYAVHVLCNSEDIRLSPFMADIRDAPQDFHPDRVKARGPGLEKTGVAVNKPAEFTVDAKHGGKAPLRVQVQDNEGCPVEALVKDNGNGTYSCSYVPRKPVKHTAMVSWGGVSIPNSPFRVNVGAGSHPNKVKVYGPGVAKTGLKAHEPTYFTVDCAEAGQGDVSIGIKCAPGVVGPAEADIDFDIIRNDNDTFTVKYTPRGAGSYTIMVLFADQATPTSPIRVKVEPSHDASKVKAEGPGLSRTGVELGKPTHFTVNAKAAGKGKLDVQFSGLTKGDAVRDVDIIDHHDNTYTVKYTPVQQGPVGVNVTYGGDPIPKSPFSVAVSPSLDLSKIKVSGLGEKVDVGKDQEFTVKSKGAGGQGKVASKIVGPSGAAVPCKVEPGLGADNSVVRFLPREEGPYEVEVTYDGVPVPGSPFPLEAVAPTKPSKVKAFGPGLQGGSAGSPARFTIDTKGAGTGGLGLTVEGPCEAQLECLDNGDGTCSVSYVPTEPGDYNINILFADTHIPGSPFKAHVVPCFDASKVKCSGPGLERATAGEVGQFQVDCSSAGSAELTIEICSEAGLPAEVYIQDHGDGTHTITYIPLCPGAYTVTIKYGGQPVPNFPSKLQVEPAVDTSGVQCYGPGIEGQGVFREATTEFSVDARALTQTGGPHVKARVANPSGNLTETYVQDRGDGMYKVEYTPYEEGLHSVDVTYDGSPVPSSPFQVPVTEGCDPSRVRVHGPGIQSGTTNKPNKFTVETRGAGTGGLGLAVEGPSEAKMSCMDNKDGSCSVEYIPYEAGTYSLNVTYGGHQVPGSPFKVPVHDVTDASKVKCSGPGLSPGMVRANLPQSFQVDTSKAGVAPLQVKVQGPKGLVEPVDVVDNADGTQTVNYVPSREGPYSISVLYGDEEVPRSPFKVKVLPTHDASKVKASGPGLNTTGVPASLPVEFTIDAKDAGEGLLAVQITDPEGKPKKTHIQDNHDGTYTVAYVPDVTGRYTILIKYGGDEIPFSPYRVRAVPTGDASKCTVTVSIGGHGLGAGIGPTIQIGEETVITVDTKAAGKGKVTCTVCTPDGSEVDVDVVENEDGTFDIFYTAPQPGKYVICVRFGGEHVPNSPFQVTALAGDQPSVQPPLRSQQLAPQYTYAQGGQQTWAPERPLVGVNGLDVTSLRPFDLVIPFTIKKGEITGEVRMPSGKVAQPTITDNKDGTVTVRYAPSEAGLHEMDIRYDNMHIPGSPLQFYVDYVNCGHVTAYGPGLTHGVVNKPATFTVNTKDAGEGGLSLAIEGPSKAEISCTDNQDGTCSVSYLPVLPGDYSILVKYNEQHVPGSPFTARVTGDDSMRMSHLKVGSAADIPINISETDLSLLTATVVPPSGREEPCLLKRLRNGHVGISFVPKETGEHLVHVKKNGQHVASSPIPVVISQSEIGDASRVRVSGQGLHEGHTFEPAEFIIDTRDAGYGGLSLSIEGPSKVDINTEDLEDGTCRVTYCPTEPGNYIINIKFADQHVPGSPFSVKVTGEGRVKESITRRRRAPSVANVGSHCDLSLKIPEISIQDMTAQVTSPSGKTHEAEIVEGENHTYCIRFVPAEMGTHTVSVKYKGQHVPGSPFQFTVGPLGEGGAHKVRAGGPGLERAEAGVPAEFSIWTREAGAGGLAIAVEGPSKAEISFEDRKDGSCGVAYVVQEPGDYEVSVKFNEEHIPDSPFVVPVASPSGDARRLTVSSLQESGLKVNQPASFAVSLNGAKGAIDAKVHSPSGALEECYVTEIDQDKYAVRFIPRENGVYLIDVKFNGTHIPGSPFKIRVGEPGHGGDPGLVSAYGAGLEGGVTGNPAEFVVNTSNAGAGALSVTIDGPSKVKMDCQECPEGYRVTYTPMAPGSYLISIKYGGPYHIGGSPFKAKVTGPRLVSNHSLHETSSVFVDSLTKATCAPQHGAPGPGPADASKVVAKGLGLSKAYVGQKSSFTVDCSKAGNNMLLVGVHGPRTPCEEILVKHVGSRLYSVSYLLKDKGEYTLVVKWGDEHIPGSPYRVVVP", "assay": "96-well FITC-solid phase method in lymphocytes", "format": "cell-based", "conditions": "1 nM C0105, 30 min; AD lymphocytes or Aβ42-treated control lymphocytes", "text": "as §1, §2\n(§3) After two 1-minute washes with 50 mM Tris HCl (pH 7.4), each well was incubated in 0.5 μg/well FITC-conjugated anti-mouse IgG (human and mouse absorbed) for 1 hour at 25° C. Plates were washed twice with 200 μl ice-cold Tris HCl, pH 7.4 and the residual FITC-Aβ42 signals were determined by multimode plate reader, DTX880 (Beckman)."}, "α7nAChR-FLNA complex [1]": {"target": "T3, α7nAChR-FLNA complex (Homo sapiens, UniProt P21333)", "T3 construct": "To determine the levels of FLNA-α7nAChR, FLNA-TLR4 and α7nAChR-Aβ42 complexes in the lymphocytes; endogenous in cells; host or cells: lymphocytes from venous blood of AD patients and control subjects (ex vivo)", "T3 sequence (P21333 2-2647 limits assumed, one chain of several)": "as above", "assay": "96-well FITC-solid phase method in lymphocytes", "format": "cell-based", "conditions": "1 nM C0105, 30 min; AD lymphocytes or Aβ42-treated control lymphocytes", "text": "as §1, §2, §3"}, "α7nAChR-FLNA complex [2]": {"target": "T3, α7nAChR-FLNA complex", "assay": "Lymphocyte co-immunoprecipitation / Western blot", "format": "cell-based", "experimental": "as §8, §9\nThe incubation was terminated by adding 1 ml ice-cold Ca^2+-free Kreb's-Ringer containing 0.5 mM EGTA/0.1 mM EDTA, protease and phosphatase inhibitors followed by centrifugation. The resultant lymphocyte pellet was homogenized in 0.25 ml ice-cold immunoprecipitation buffer. […]\nThe membranes were then washed 3 times (1 minutes each) with 0.1% Tween-20 containing PBS and then once with distilled water for 1 minutes. The immunoreactivity was detected by a chemiluminutesescent method (Supersignal chemiluminutesescent reagents−Pierce/Thermo), and visualized by immediate exposure to X-ray film for 10-30 seconds (depending on the intensity of the signal). Specific protein bands were quantified by densitometric scanning (GS-800 calibrated densitometer, Bio-Rad Laboratories).\nThe membranes were then washed 3 times (1 minutes each) with 0.1% Tween®-20-containing PBS and then once with distilled water for 1 minute. The immunoreactivity was detected by a chemiluminutesescent method (Supersignal chemiluminutesescent reagents—Pierce/Thermo), and visualized by immediate exposure to X-ray film for 10-30 seconds (depending on the intensity of the signal). Specific protein bands were quantified by densitometric scanning (GS-800 calibrated densitometer, Bio-Rad Laboratories). The data are expressed as the ratio of α7nAChR/FLNA, TLR4/FLNA or α7nAChR/β-Actin optical intensities (in arbitrary units)."}, "[3]": {"target": "FLNA association with α7nAChR (Homo sapiens, UniProt P21333)", "sequence (P21333 2-2647 limits assumed)": "as the sequence (P21333 2-2647 limits assumed, one chain of several) above", "assay": "Postmortem human brain tissue slices, anti-FLNA immunoprecipitation / Western blot", "format": "cell-based", "conditions": "0.1 and 1 nM C0105, 1 hour; postmortem AD and Aβ42-treated control FCX tissue", "method": "(§4) Blots were analyzed by densitometric quantitation (FIG. 3B and FIG. 3D). […] Percent inhibition is depicted in FIG. 3C and FIG. 3E. n=11.\n(§5) Postmortem brain tissues FCX from patients with clinically diagnosed sporadic AD and control tissues from normal, age-matched, neurologically normal individuals were obtained from the Harvard Brain Tissue Resource Center (HBTRC, Belmont, Mass.) and UCLA Brain Tissue Resource Center (UBTRC, Los Angeles, Calif.). Both HBTRC and UBTRC are supported in part by the National Institute of Health. The postmortem time intervals for collecting these brains were ≤13 hour (mean postmortem intervals for collection of AD and control brain samples were 6.0±0.9 hour and 5.8±0.8 hour, respectively). Diagnostic neuropathological examination was conducted on fixed sections stained with hematoxylin and eosin stain and with modified Bielschowsky silver staining [Yamamoto et al., Neuropathol Appl Neurobiol 12, 3-9 (1986)] to establish any disease diagnosis according to defined criteria [Hyman et al., J Neuropathol Exp Neurol 56, 1095-1097 (1997)] and brain tissue from age-matched controls was similarly screened.\n(§6) Following centrifugation and two additional washes with 1 ml ice-cold K-R, brain slices were suspended in 1 ml K-R.\n(§7) Incubation continued for 1 hour in the dark. […]"}, "[4]": {"target": "FLNA association with TLR4 (Homo sapiens, UniProt P21333)", "sequence (P21333 2-2647 limits assumed)": "as the sequence (P21333 2-2647 limits assumed, one chain of several) above", "assay": "Postmortem human brain tissue slices, anti-FLNA immunoprecipitation / Western blot", "format": "cell-based", "conditions": "0.1 and 1 nM C0105, 1 hour; postmortem AD and Aβ42-treated control FCX tissue", "method": "as §4, §5, §6, §7"}, "[5]": {"conditions": "1 nM C0105, lymphocytes of 10 YCI controls"}}}
{"smiles": "CN1CCC2(CC1)NCC(=O)N2Cc1ccccc1", "note": "[Compound C0105]", "values": [{"measurement": "Reduction of α7nAChR/Aβ42 complex level (% inhibition)", "setting": "Aβ42-α7nAChR complex; 1 nM C0105, 30 min, lymphocytes of 20 AD subjects", "value": "approximately 50%"}, {"measurement": "Effect on α7nAChR/Aβ42 complex level (in words)", "setting": "Aβ42-α7nAChR complex; [5]", "value": "no discernible effect"}, {"measurement": "TLR4/FLNA ratio versus Aβ42 alone (in words)", "setting": "TLR4/FLNA", "value": "statistically different from Aβ42 alone"}, {"measurement": "Effect on α7nAChR-Aβ42 complexes (in words)", "setting": "α7nAChR-Aβ42 complex", "value": "reduce all three associations"}, {"measurement": "Effect on FLNA-TLR4 association (in words)", "setting": "TLR4-FLNA complex", "value": "reduce all three associations"}, {"measurement": "Effect on FLNA-α7nAChR association (in words)", "setting": "α7nAChR-FLNA complex [1]", "value": "reduce all three associations"}, {"measurement": "inhibition at 0.001 µM", "setting": "α7nAChR-FLNA complex [2]; 1 nM C0105, 30 min, lymphocytes of 20 AD subjects, read-out: Reduction of α7nAChR/FLNA complex level (% inhibition)", "value": "~50", "unit": "%"}, {"measurement": "Effect on amount of α7nAChR-FLNA complexes (in words), pilot study", "setting": "α7nAChR-FLNA complex [2]; 1 nM C0105, Aβ42-treated control and untreated AD lymphocytes", "value": "decreases the amount of α7nAChR-FLNA complexes"}, {"measurement": "Effect on α7nAChR/FLNA complex level (in words)", "setting": "α7nAChR-FLNA complex [2]; [5]", "value": "no discernible effect"}, {"measurement": "Effect on FLNA association with α7nAChR (in words)", "setting": "[3]", "value": "reduced these associations"}, {"measurement": "Effect on FLNA association with TLR4 (in words)", "setting": "[4]", "value": "reduced these associations"}]}
